A short description of series [1]: Human plasma half-life assay (LC-MS). The series is classed as in vitro ADME. The note with it: incubated at 37° C., read-out: Human Plasma T½ (converted). The protocol: (§1) B. Human and Rat Plasma Half-Life Assay
(§2) 50 μl, was removed at various times, like at 0, 1, 2, 3, 4, 8, 24, 32, 48, 56, 72 hours, mixed with 5 μL formic acid and 150 μL acetonitrile in a microcentrifuge tube, vertexed, and centrifuged for 10 minutes at 10K rpm. The supernatant was transferred to an injection vial and analyzed by LC-MS. The LC-MS system consisted of an API4000 mass spectrometer with an ESI probe. Positive ion mode and full scan detection were used. HPLC separation was carried out on a Luna 3μ C8 (2), 2×30 mm column with a gradient from 90% A to 90% B in 10 minutes at a flow rate of 0.3 ml/min. Buffer A was 1% formic acid in water and buffer B was 1% formic acid acetonitrile.

A short description of series [2]: Rat plasma half-life assay (LC-MS). The series is classed as in vitro ADME. The note with it: incubated at 37° C., read-out: Rat Plasma T½ (converted). The protocol:
as §1, §2

Where a SMILES comes first, the peptide text is derived from it. [ ]: non-standard residue; d: D form. The star is where a group is joined. Cyclohexanecarbonyl = O=C(C1CCCCC1)*; X2 = CCCCCCN1C(=O)CC(*)C1=O; Decanoyl = CCCCCCCCCC(=O)*; Ac6c = NC1(C(=O)O)CCCCC1; Orn = NCCC[C@H](N)C(=O)O; X1 = CCCN1C(=O)CC(*)C1=O

In the case of `CCCN1C(=O)CC(SC[C@H](NC(=O)[C@H](CCCCN)NC(=O)[C@H](CCC(N)=O)NC(=O)[C@H](C)NC(=O)[C@H](CC(C)C)NC(=O)[C@H](CC(C)C)NC(=O)[C@H](Cc2c[nH]c3ccccc23)NC(=O)[C@H](CC(N)=O)NC(=O)[C@@H](NC(=O)[C@H](Cc2ccccc2)NC(=O)[C@H](CC(=O)O)NC(=O)[C@H](CCC(N)=O)NC(=O)[C@H](CCC(N)=O)NC(=O)[C@H](Cc2c[nH]cn2)NC(=O)[C@@H](NC(=O)[C@H](CCCCN)NC(=O)[C@H](CC(=O)O)NC(=O)[C@H](CCSC)NC(=O)[C@H](C)NC(=O)[C@@H](NC(=O)[C@H](CO)NC(=O)[C@H](Cc2ccc(O)cc2)NC(=O)[C@H](CC(=O)O)NC(=O)[C@H](CO)NC(=O)C2CCCCC2)[C@@H](C)CC)[C@@H](C)CC)C(C)C)C(=O)N[C@@H](CCCCN)C(=O)N[C@@H](CCCCN)C(=O)N[C@@H](CC(N)=O)C(=O)N[C@@H](CC(=O)O)C(=O)N[C@@H](Cc2c[nH]c3ccccc23)C(=O)N[C@@H](CCCCN)C(=O)N[C@@H](Cc2c[nH]cn2)C(=O)N[C@@H](CC(N)=O)C(=O)N[C@H](C(=O)N[C@H](C(=O)N[C@@H](CCC(N)=O)C(=O)O)[C@@H](C)O)[C@@H](C)CC)C1=O` (some centres unmarked) [Example 40, [Chc-Ser^8, Cys(Psu)^31]hGIP(8-42)-OH] (Cyclohexanecarbonyl-SDYSIAMDKIHQQDFVNWLLAQKC(X1)KKNDWKHNITQ-OH), the half-life at 0.1 mg/mL was 4.1 h in series [1] and 6.9 h in series [2].

For `CCCN1C(=O)CC(SC[C@H](NC(=O)[C@H](CCCCN)NC(=O)[C@H](CCC(N)=O)NC(=O)[C@H](C)NC(=O)[C@H](CC(C)C)NC(=O)[C@H](CC(C)C)NC(=O)[C@H](Cc2c[nH]c3ccccc23)NC(=O)[C@H](CC(N)=O)NC(=O)[C@@H](NC(=O)[C@H](Cc2ccccc2)NC(=O)[C@H](CC(=O)O)NC(=O)[C@H](CCC(N)=O)NC(=O)[C@H](CCC(N)=O)NC(=O)[C@H](Cc2c[nH]cn2)NC(=O)[C@@H](NC(=O)[C@H](CCCCN)NC(=O)[C@H](CC(=O)O)NC(=O)[C@H](CCSC)NC(=O)[C@H](C)NC(=O)[C@@H](NC(=O)[C@H](CO)NC(=O)[C@H](Cc2ccc(O)cc2)NC(=O)[C@H](CC(=O)O)NC(=O)[C@H](CO)NC(=O)C2(NC(=O)[C@@H](N)Cc3ccccc3)CCCCC2)[C@@H](C)CC)[C@@H](C)CC)C(C)C)C(N)=O)C1=O` (some centres unmarked) [Example 34, [A6c^7, Cys(Psu)^31]hGIP(6-31)-NH2], the half-life at 0.1 mg/mL in series [1] was 11.3 h; in series [2], 7.4 h.

In the case of `CCCCCCCCCC(=O)NCCC[C@H](NC(=O)[C@H](CCCCN)NC(=O)[C@H](CCC(N)=O)NC(=O)[C@H](C)NC(=O)[C@H](CC(C)C)NC(=O)[C@H](CC(C)C)NC(=O)[C@H](Cc1c[nH]c2ccccc12)NC(=O)[C@H](CC(N)=O)NC(=O)[C@@H](NC(=O)[C@H](Cc1ccccc1)NC(=O)[C@H](CC(=O)O)NC(=O)[C@H](CCC(N)=O)NC(=O)[C@H](CCC(N)=O)NC(=O)[C@H](Cc1c[nH]cn1)NC(=O)[C@@H](NC(=O)[C@H](CCCCN)NC(=O)[C@H](CC(=O)O)NC(=O)[C@H](CCSC)NC(=O)[C@H](C)NC(=O)[C@@H](NC(=O)[C@H](CO)NC(=O)[C@H](Cc1ccc(O)cc1)NC(=O)[C@H](CC(=O)O)NC(=O)[C@H](CO)NC(=O)C1(NC(=O)CCCCCCCCC)CCCCC1)[C@@H](C)CC)[C@@H](C)CC)C(C)C)C(=O)N[C@@H](CCCCN)C(=O)N[C@@H](CCCCN)C(=O)N[C@@H](CC(N)=O)C(=O)N[C@@H](CC(=O)O)C(=O)N[C@@H](Cc1c[nH]c2ccccc12)C(=O)N[C@@H](CCCCN)C(=O)N[C@@H](Cc1c[nH]cn1)C(=O)N[C@@H](CC(N)=O)C(=O)N[C@H](C(=O)N[C@H](C(=O)N[C@@H](CCC(N)=O)C(=O)O)[C@@H](C)O)[C@@H](C)CC` [Example 15, [CH3-(CH2)8-C(O)-A6c^7, Orn^31(N-C(O)-(CH2)8-CH3)]hGIP(7-42)-OH] (Decanoyl-[Ac6c]SDYSIAMDKIHQQDFVNWLLAQK[Orn](Decanoyl)KKNDWKHNITQ-OH), the figures for the half-life at 0.1 mg/ml in series [1] and in series [2] were 5.2 h and > 72 h, respectively.

As for `CCCCCCCCCC(=O)NCCC[C@H](NC(=O)[C@H](CCCCN)NC(=O)[C@H](CCCCN)NC(=O)CNC(=O)[C@H](CCCCN)NC(=O)[C@H](CCC(N)=O)NC(=O)[C@H](C)NC(=O)[C@H](CC(C)C)NC(=O)[C@H](CC(C)C)NC(=O)[C@H](Cc1c[nH]c2ccccc12)NC(=O)[C@H](CC(N)=O)NC(=O)[C@@H](NC(=O)[C@H](Cc1ccccc1)NC(=O)[C@H](CC(=O)O)NC(=O)[C@H](CCC(N)=O)NC(=O)[C@H](CCC(N)=O)NC(=O)[C@H](Cc1c[nH]cn1)NC(=O)[C@@H](NC(=O)[C@H](CCCCN)NC(=O)[C@H](CC(=O)O)NC(=O)[C@H](CCSC)NC(=O)[C@H](C)NC(=O)[C@@H](NC(=O)[C@H](CO)NC(=O)[C@H](Cc1ccc(O)cc1)NC(=O)[C@H](CC(=O)O)NC(=O)[C@H](CO)NC(=O)C1(N)CCCCC1)[C@@H](C)CC)[C@@H](C)CC)C(C)C)C(=O)N[C@@H](CC(=O)O)C(=O)N[C@@H](Cc1c[nH]c2ccccc12)C(=O)N[C@@H](CCCCN)C(=O)N[C@@H](Cc1c[nH]cn1)C(=O)N[C@@H](CC(N)=O)C(=O)N[C@H](C(=O)N[C@H](C(=O)N[C@@H](CCC(N)=O)C(=O)O)[C@@H](C)O)[C@@H](C)CC` [Example 20, [A6c^7, Orn^34(N-C(O)-(CH2)8-CH3)]hGIP(7-42)-OH] (H-[Ac6c]SDYSIAMDKIHQQDFVNWLLAQKGKK[Orn](Decanoyl)DWKHNITQ-OH), the half-life at 0.1 mg/mL is 9.4 h in series [1] and 13.9 h in series [2].

For the compound `CCCCCCCCCC(=O)NCCC[C@H](NC(=O)[C@H](CCCCN)NC(=O)[C@H](CCC(N)=O)NC(=O)[C@H](C)NC(=O)[C@H](CC(C)C)NC(=O)[C@H](CC(C)C)NC(=O)[C@H](Cc1c[nH]c2ccccc12)NC(=O)[C@H](CC(N)=O)NC(=O)[C@@H](NC(=O)[C@H](Cc1ccccc1)NC(=O)[C@H](CC(=O)O)NC(=O)[C@H](CCC(N)=O)NC(=O)[C@H](CCC(N)=O)NC(=O)[C@H](Cc1c[nH]cn1)NC(=O)[C@@H](NC(=O)[C@H](CCCCN)NC(=O)[C@H](CC(=O)O)NC(=O)[C@H](CCSC)NC(=O)[C@H](C)NC(=O)[C@@H](NC(=O)[C@H](CO)NC(=O)[C@H](Cc1ccc(O)cc1)NC(=O)[C@H](CC(=O)O)NC(=O)[C@@H](N)CO)[C@@H](C)CC)[C@@H](C)CC)C(C)C)C(=O)N[C@@H](CCCCN)C(=O)N[C@@H](CCCCN)C(=O)N[C@@H](CC(N)=O)C(=O)N[C@@H](CC(=O)O)C(=O)N[C@@H](Cc1c[nH]c2ccccc12)C(=O)N[C@@H](CCCCN)C(=O)N[C@@H](Cc1c[nH]cn1)C(=O)N[C@@H](CC(N)=O)C(=O)N[C@H](C(=O)N[C@H](C(=O)N[C@@H](CCC(N)=O)C(=O)O)[C@@H](C)O)[C@@H](C)CC` [Example 39, [Orn^31(N-C(O)-(CH2)8-CH3)]hGIP(8-42)-OH] (H-SDYSIAMDKIHQQDFVNWLLAQK[Orn](Decanoyl)KKNDWKHNITQ-OH), the half-life at 0.1 mg/ml was 31.1 h in series [1] and 13.7 h in series [2].

Consider `CCCCCCN1C(=O)CC(SC[C@H](NC(=O)[C@H](CCCCN)NC(=O)[C@H](CCC(N)=O)NC(=O)[C@H](C)NC(=O)[C@H](CC(C)C)NC(=O)[C@H](CC(C)C)NC(=O)[C@H](Cc2c[nH]c3ccccc23)NC(=O)[C@H](CC(N)=O)NC(=O)[C@@H](NC(=O)[C@H](Cc2ccccc2)NC(=O)[C@H](CC(=O)O)NC(=O)[C@H](CCC(N)=O)NC(=O)[C@H](CCC(N)=O)NC(=O)[C@H](Cc2c[nH]cn2)NC(=O)[C@@H](NC(=O)[C@H](CCCCN)NC(=O)[C@H](CC(=O)O)NC(=O)[C@H](CCSC)NC(=O)[C@H](C)NC(=O)[C@@H](NC(=O)[C@H](CO)NC(=O)[C@H](Cc2ccc(O)cc2)NC(=O)[C@H](CC(=O)O)NC(=O)[C@H](CO)NC(=O)C2(N)CCCCC2)[C@@H](C)CC)[C@@H](C)CC)C(C)C)C(=O)N[C@@H](CCCCN)C(=O)N[C@@H](CCCCN)C(=O)N[C@@H](CC(N)=O)C(=O)N[C@@H](CC(=O)O)C(=O)N[C@@H](Cc2c[nH]c3ccccc23)C(=O)N[C@@H](CCCCN)C(=O)N[C@@H](Cc2c[nH]cn2)C(=O)N[C@@H](CC(N)=O)C(=O)N[C@H](C(=O)N[C@H](C(=O)N[C@@H](CCC(N)=O)C(=O)O)[C@@H](C)O)[C@@H](C)CC)C1=O` (some centres unmarked) [Example 23, [A6c^7, Cys(Hsu)^31]hGIP(7-42)-OH] (H-[Ac6c]SDYSIAMDKIHQQDFVNWLLAQKC(X2)KKNDWKHNITQ-OH), for which the half-life at 0.1 mg/mL in series [1] was 11.7 h; in series [2] it was 5.3 h.

Take `CCCN1C(=O)CC(SC[C@H](NC(=O)[C@H](Cc2c[nH]cn2)NC(=O)[C@H](CCCCN)NC(=O)[C@H](Cc2c[nH]c3ccccc23)NC(=O)[C@H](CC(=O)O)NC(=O)[C@H](CC(N)=O)NC(=O)[C@H](CCCCN)NC(=O)[C@H](CCCCN)NC(=O)CNC(=O)[C@H](CCCCN)NC(=O)[C@H](CCC(N)=O)NC(=O)[C@H](C)NC(=O)[C@H](CC(C)C)NC(=O)[C@H](CC(C)C)NC(=O)[C@H](Cc2c[nH]c3ccccc23)NC(=O)[C@H](CC(N)=O)NC(=O)[C@@H](NC(=O)[C@H](Cc2ccccc2)NC(=O)[C@H](CC(=O)O)NC(=O)[C@H](CCC(N)=O)NC(=O)[C@H](CCC(N)=O)NC(=O)[C@H](Cc2c[nH]cn2)NC(=O)[C@@H](NC(=O)[C@H](CCCCN)NC(=O)[C@H](CC(=O)O)NC(=O)[C@H](CCSC)NC(=O)[C@H](C)NC(=O)[C@@H](NC(=O)[C@H](CO)NC(=O)[C@H](Cc2ccc(O)cc2)NC(=O)[C@H](CC(=O)O)NC(=O)[C@H](CO)NC(=O)C2(NC(C)=O)CCCCC2)[C@@H](C)CC)[C@@H](C)CC)C(C)C)C(=O)N[C@H](C(=O)N[C@H](C(=O)N[C@@H](CCC(N)=O)C(=O)O)[C@@H](C)O)[C@@H](C)CC)C1=O` (some centres unmarked) [Example 3, [Ac-A6c^7, Cys(Psu)^39]hGIP(7-42)-OH] (Ac-[Ac6c]SDYSIAMDKIHQQDFVNWLLAQKGKKNDWKHC(X1)ITQ-OH): the half-life at 0.1 mg/mL is 16.4 h in series [1] and 5.6 h in series [2].
